Reference: PubChem BioAssay AID1963830 (Molecular Pharmacology Branch, DTP, NCI, 2024)

System: 922993-354-T-J3-PDC complex spheroid viability
Assay: Anticancer human tumor 922993-354-T-J3-PDC patient-derived endometrial carcinoma cell line growth inhibition [POLQ]
Settings: for IC50: curve of first compound; for viability, T/C: stronger effect = lower value
Outline: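 Growth inhibition in 3D: complex spheroids (tumor PDC, HUVEC, MSC) treated with POLQ inhibitor combinations; where Cmax unknown, highest tested concentration 10 microM, except SN-38 at 1 microM.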

[1] = second compound 0.0316 µM, first compound 0.0316 µM
[2] = second compound 0.0316 µM, first compound 0.1 µM
[3] = second compound 0.0316 µM, first compound 0.316 µM
[4] = second compound 0.0316 µM, first compound 1 µM
[5] = second compound 0.0316 µM, first compound 3.16 µM
[6] = second compound 0.0316 µM, first compound 10 µM
[7] = second compound 0.1 µM, first compound 0.0316 µM
[8] = second compound 0.1 µM, first compound 0.1 µM
[9] = second compound 0.1 µM, first compound 0.316 µM
[10] = second compound 0.1 µM, first compound 1 µM
[11] = second compound 0.1 µM, first compound 3.16 µM
[12] = second compound 0.1 µM, first compound 10 µM
[13] = second compound 0.316 µM, first compound 0.0316 µM
[14] = second compound 0.316 µM, first compound 0.1 µM
[15] = second compound 0.316 µM, first compound 0.316 µM
[16] = second compound 0.316 µM, first compound 1 µM
[17] = second compound 0.316 µM, first compound 3.16 µM
[18] = second compound 0.316 µM, first compound 10 µM
[19] = second compound 1 µM, first compound 0.0316 µM
[20] = second compound 1 µM, first compound 0.1 µM
[21] = second compound 1 µM, first compound 0.316 µM
[22] = second compound 1 µM, first compound 1 µM
[23] = second compound 1 µM, first compound 3.16 µM
[24] = second compound 1 µM, first compound 10 µM
[25] = second compound 3.16 µM, first compound 0.0316 µM
[26] = second compound 3.16 µM, first compound 0.1 µM
[27] = second compound 3.16 µM, first compound 0.316 µM
[28] = second compound 3.16 µM, first compound 1 µM
[29] = second compound 3.16 µM, first compound 3.16 µM
[30] = second compound 3.16 µM, first compound 10 µM
[31] = second compound 10 µM, first compound 0.0316 µM
[32] = second compound 10 µM, first compound 0.1 µM
[33] = second compound 10 µM, first compound 0.316 µM
[34] = second compound 10 µM, first compound 1 µM
[35] = second compound 10 µM, first compound 3.16 µM
[36] = second compound 10 µM, first compound 10 µM
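Further: spheroids exposed to the agents for one week.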
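Wherever viability, T/C is given: 100% = DMSO vehicle control wells.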

C=CC(=O)N1CCN(c2nc(=O)n(-c3c(C)ccnc3C(C)C)c3nc(-c4c(O)cccc4F)c(F)cc23)C(C)C1 (stereo not given) + Nc1ccc(C#CCN(C(=O)Cc2ncc(C(F)(F)F)cc2C(F)(F)F)c2ccc(F)cc2)nn1
IC50 (second compound 0.0316 µM): > 10 µM
IC50 (second compound 0.1 µM): > 10 µM
IC50 (second compound 0.316 µM): > 10 µM
IC50 (second compound 1 µM): > 10 µM
IC50 (second compound 3.16 µM): > 10 µM
IC50 (second compound 10 µM): > 10 µM
viability, T/C [1]: 105%
viability, T/C [2]: 103%
viability, T/C [3]: 96.5%
viability, T/C [4]: 108%
viability, T/C [5]: 105%
viability, T/C [6]: 104%
viability, T/C [7]: 110%
viability, T/C [8]: 106%
viability, T/C [9]: 104%
viability, T/C [10]: 108%
viability, T/C [11]: 107%
viability, T/C [12]: 104%
viability, T/C [13]: 107%
viability, T/C [14]: 107%
viability, T/C [15]: 103%
viability, T/C [16]: 105%
viability, T/C [17]: 104%
viability, T/C [18]: 99.3%
viability, T/C [19]: 107%
viability, T/C [20]: 101%
viability, T/C [21]: 99.6%
viability, T/C [22]: 108%
viability, T/C [23]: 101%
viability, T/C [24]: 102%
viability, T/C [25]: 101%
viability, T/C [26]: 105%
viability, T/C [27]: 104%
viability, T/C [28]: 102%
viability, T/C [29]: 103%
viability, T/C [30]: 101%
viability, T/C [31]: 97.3%
viability, T/C [32]: 105%
viability, T/C [33]: 105%
viability, T/C [34]: 93.6%
viability, T/C [35]: 101%
viability, T/C [36]: 98.1%

CC(C)n1c(=O)n(C)c2cnc3cc(F)c(-c4ccc(OCCCN5CCCCC5)nc4)cc3c21 + Nc1ccc(C#CCN(C(=O)Cc2ncc(C(F)(F)F)cc2C(F)(F)F)c2ccc(F)cc2)nn1
IC50 (second compound 0.0316 µM): > 10 µM
IC50 (second compound 0.1 µM): > 10 µM
IC50 (second compound 0.316 µM): > 10 µM
IC50 (second compound 1 µM): > 10 µM
IC50 (second compound 3.16 µM): > 10 µM
IC50 (second compound 10 µM): > 10 µM
viability, T/C [1]: 101%
viability, T/C [2]: 99%
viability, T/C [3]: 99.1%
viability, T/C [4]: 95.2%
viability, T/C [5]: 93.9%
viability, T/C [6]: 86.7%
viability, T/C [7]: 107%
viability, T/C [8]: 103%
viability, T/C [9]: 104%
viability, T/C [10]: 95.3%
viability, T/C [11]: 86.7%
viability, T/C [12]: 84.7%
viability, T/C [13]: 106%
viability, T/C [14]: 107%
viability, T/C [15]: 93.9%
viability, T/C [16]: 101%
viability, T/C [17]: 93.9%
viability, T/C [18]: 80.1%
viability, T/C [19]: 103%
viability, T/C [20]: 95.9%
viability, T/C [21]: 99.6%
viability, T/C [22]: 98.9%
viability, T/C [23]: 94%
viability, T/C [24]: 80.4%
viability, T/C [25]: 96.9%
viability, T/C [26]: 99.4%
viability, T/C [27]: 94.6%
viability, T/C [28]: 98.1%
viability, T/C [29]: 88.6%
viability, T/C [30]: 84.1%
viability, T/C [31]: 98.8%
viability, T/C [32]: 92.8%
viability, T/C [33]: 94.9%
viability, T/C [34]: 90.6%
viability, T/C [35]: 92.5%
viability, T/C [36]: 82.1%

CC1COCCN1c1cc(-c2ccnn2C)c2ccnc(-c3ccn[nH]3)c2n1 (stereo not given) + Nc1ccc(C#CCN(C(=O)Cc2ncc(C(F)(F)F)cc2C(F)(F)F)c2ccc(F)cc2)nn1
IC50 (second compound 0.0316 µM): 0.68 µM
IC50 (second compound 0.1 µM): 0.653 µM
IC50 (second compound 0.316 µM): 0.717 µM
IC50 (second compound 1 µM): 0.729 µM
IC50 (second compound 3.16 µM): 0.593 µM
IC50 (second compound 10 µM): 0.449 µM
viability, T/C [1]: 107%
viability, T/C [2]: 102%
viability, T/C [3]: 72.5%
viability, T/C [4]: 38.3%
viability, T/C [5]: 21%
viability, T/C [6]: 13.9%
viability, T/C [7]: 109%
viability, T/C [8]: 95.5%
viability, T/C [9]: 70.7%
viability, T/C [10]: 40%
viability, T/C [11]: 14.2%
viability, T/C [12]: 14.5%
viability, T/C [13]: 104%
viability, T/C [14]: 93.1%
viability, T/C [15]: 72%
viability, T/C [16]: 42.1%
viability, T/C [17]: 18.9%
viability, T/C [18]: 13.8%
viability, T/C [19]: 102%
viability, T/C [20]: 92.1%
viability, T/C [21]: 78.2%
viability, T/C [22]: 39.2%
viability, T/C [23]: 16.8%
viability, T/C [24]: 10.1%
viability, T/C [25]: 101%
viability, T/C [26]: 89.5%
viability, T/C [27]: 69.2%
viability, T/C [28]: 33.8%
viability, T/C [29]: 19.3%
viability, T/C [30]: 11.5%
viability, T/C [31]: 99.1%
viability, T/C [32]: 80.2%
viability, T/C [33]: 64.7%
viability, T/C [34]: 23.1%
viability, T/C [35]: 17.5%
viability, T/C [36]: 13.2%

CC1COCCN1c1cc(C2(S(C)(=N)=O)CC2)nc(-c2ccnc3[nH]ccc23)n1 (stereo not given) + Nc1ccc(C#CCN(C(=O)Cc2ncc(C(F)(F)F)cc2C(F)(F)F)c2ccc(F)cc2)nn1
IC50 (second compound 0.0316 µM): > 10 µM
IC50 (second compound 0.1 µM): > 10 µM
IC50 (second compound 0.316 µM): > 10 µM
IC50 (second compound 1 µM): > 10 µM
IC50 (second compound 3.16 µM): > 10 µM
IC50 (second compound 10 µM): 6.37 µM
viability, T/C [1]: 104%
viability, T/C [2]: 106%
viability, T/C [3]: 98.7%
viability, T/C [4]: 106%
viability, T/C [5]: 95.5%
viability, T/C [6]: 88.5%
viability, T/C [7]: 107%
viability, T/C [8]: 105%
viability, T/C [9]: 101%
viability, T/C [10]: 102%
viability, T/C [11]: 105%
viability, T/C [12]: 89.2%
viability, T/C [13]: 105%
viability, T/C [14]: 101%
viability, T/C [15]: 101%
viability, T/C [16]: 97.2%
viability, T/C [17]: 105%
viability, T/C [18]: 91.6%
viability, T/C [19]: 102%
viability, T/C [20]: 99%
viability, T/C [21]: 102%
viability, T/C [22]: 98.9%
viability, T/C [23]: 101%
viability, T/C [24]: 89.6%
viability, T/C [25]: 103%
viability, T/C [26]: 95%
viability, T/C [27]: 102%
viability, T/C [28]: 95.5%
viability, T/C [29]: 101%
viability, T/C [30]: 85.3%
viability, T/C [31]: 98.3%
viability, T/C [32]: 96.5%
viability, T/C [33]: 98.7%
viability, T/C [34]: 92.9%
viability, T/C [35]: 81.6%
viability, T/C [36]: 29.9%

COc1ccc([C@@H](O)c2cc(-c3ncnc4cc(N5CCOCC5)ccc34)c(F)cc2Cl)nn1 + Nc1ccc(C#CCN(C(=O)Cc2ncc(C(F)(F)F)cc2C(F)(F)F)c2ccc(F)cc2)nn1
IC50 (second compound 0.0316 µM): > 10 µM
IC50 (second compound 0.1 µM): > 10 µM
IC50 (second compound 0.316 µM): > 10 µM
IC50 (second compound 1 µM): > 10 µM
IC50 (second compound 3.16 µM): > 10 µM
IC50 (second compound 10 µM): > 10 µM
viability, T/C [1]: 103%
viability, T/C [2]: 103%
viability, T/C [3]: 98%
viability, T/C [4]: 100%
viability, T/C [5]: 91.3%
viability, T/C [6]: 73.8%
viability, T/C [7]: 106%
viability, T/C [8]: 104%
viability, T/C [9]: 100%
viability, T/C [10]: 97.9%
viability, T/C [11]: 93.7%
viability, T/C [12]: 75.5%
viability, T/C [13]: 106%
viability, T/C [14]: 99.2%
viability, T/C [15]: 101%
viability, T/C [16]: 97.4%
viability, T/C [17]: 87.3%
viability, T/C [18]: 74.9%
viability, T/C [19]: 105%
viability, T/C [20]: 102%
viability, T/C [21]: 99.1%
viability, T/C [22]: 93.5%
viability, T/C [23]: 89.4%
viability, T/C [24]: 74.9%
viability, T/C [25]: 97.1%
viability, T/C [26]: 97%
viability, T/C [27]: 93.5%
viability, T/C [28]: 92.5%
viability, T/C [29]: 86.5%
viability, T/C [30]: 72%
viability, T/C [31]: 97.3%
viability, T/C [32]: 89%
viability, T/C [33]: 91.4%
viability, T/C [34]: 91.9%
viability, T/C [35]: 90.3%
viability, T/C [36]: 68.8%
